The values below come from publication PMC11197535, “Reprogramming of phytopathogen transcriptome by a non-bactericidal pesticide residue alleviates its virulence in rice” (Fundamental Research, 2022).

This assay has as its target T1, TroK (Burkholderia plantarii, UniProt A0A0B6RRK0).
T1 construct: gene BGL_1c34780
Description: SPR (Biacore T200, multiple cycle kinetics). Type of assay: binding. As to conditions: TroK immobilised on CM7 chip by amine coupling; 10 mM PBS, pH 7.4, 150 mM NaCl, DMSO; free ATT. The text has this: SPR (Biacore T200, multiple cycle kinetics) on TroK | thiazole could directly bind to the purified TroK in the transmembrane region

T1 sequence (A0A0B6RRK0 entry or part of it): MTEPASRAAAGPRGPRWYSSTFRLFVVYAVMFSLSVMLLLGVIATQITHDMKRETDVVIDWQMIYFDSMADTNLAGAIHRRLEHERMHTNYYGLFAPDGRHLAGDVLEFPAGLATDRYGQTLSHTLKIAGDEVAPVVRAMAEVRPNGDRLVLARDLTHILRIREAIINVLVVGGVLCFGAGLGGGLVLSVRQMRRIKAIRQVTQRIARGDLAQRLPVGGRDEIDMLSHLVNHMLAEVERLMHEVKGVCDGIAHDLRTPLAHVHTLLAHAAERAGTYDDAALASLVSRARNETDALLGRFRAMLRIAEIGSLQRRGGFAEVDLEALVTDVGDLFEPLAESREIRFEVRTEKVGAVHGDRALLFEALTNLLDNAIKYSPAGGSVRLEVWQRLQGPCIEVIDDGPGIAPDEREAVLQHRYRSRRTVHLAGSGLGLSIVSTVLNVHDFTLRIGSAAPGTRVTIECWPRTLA

For `Nc1nnc(S)s1` [ATT, 5-Amino-1,3,4-thiadiazole-2-thiol], the Kd was determined as 728 nM.
